This assay concerns Influenza A/WSN/33-Luciferase virus. Kind of assay: microbe, parasite or virus in culture. Format: cell-based. The settings on record: A549, 72 h, luciferase signal three days later, read-out: IC50 antiviral activity (Luciferase reporter assay).

Among the data in patent US10597380B2, “Pyridazinone-based broad spectrum anti-influenza inhibitors” (Hoffmann-La Roche Inc., priority 2017, dated 2020) are IC50 values, retold here.

By IC50 is commonly meant the midpoint of a concentration-inhibition curve.

As for `CNC(=O)COCCn1cccc(Nc2nn(-c3ccc(OC(F)(F)F)cc3)c(=O)c3ccccc23)c1=O` [Example 102, N-methyl-2-[2-[2-oxo-3-[[4-oxo-3-[4-(trifluoromethoxy)phenyl]phthalazin-1-yl]amino]-1-pyridyl]ethoxy]acetamide], the IC50 was determined as 37 nM.
Turning to `CN(C)C(=O)COCCn1cccc(Nc2nn(-c3ccc(OC(F)(F)F)cc3)c(=O)c3ccccc23)c1=O` [Example 103, N,N-dimethyl-2-[2-[2-oxo-3-[[4-oxo-3-[4-(trifluoromethoxy)phenyl]phthalazin-1-yl]amino]-1-pyridyl]ethoxy]acetamide], the IC50 was determined as 38 nM.
The result for `CNC(=O)Cn1cccc(Nc2nn(-c3ccc(OC(F)(F)F)cc3)c(=O)c3c2CCCC3)c1=O` [Example 104, N-methyl-2-[2-oxo-3-[[4-oxo-3-[4-(trifluoromethoxy)phenyl]-5,6,7,8-tetrahydrophthalazin-1-yl]amino]-1-pyridyl]acetamide] reads 39 nM; that for `CNC(=O)CCCn1cccc(Nc2nn(-c3ccc(OC(F)(F)F)cc3)c(=O)c3c2CCC3)c1=O` [Example 105, N-methyl-4-[2-oxo-3-[[4-oxo-3-[4-(trifluoromethoxy)phenyl]-6,7-dihydro-5H-cyclopenta[d]pyridazin-1-yl]amino]-1-pyridyl]butanamide], 15 nM.
The result for `CN(C)C(=O)CCCn1cccc(Nc2nn(-c3ccc(OC(F)(F)F)cc3)c(=O)c3c2CCC3)c1=O` [Example 106, N,N-dimethyl-4-[2-oxo-3-[[4-oxo-3-[4-(trifluoromethoxy)phenyl]-6,7-dihydro-5H-cyclopenta[d]pyridazin-1-yl]amino]-1-pyridyl]butanamide] reads 14 nM; that for `CNC(=O)COCCn1cccc(Nc2nn(-c3ccc(OC(F)(F)F)cc3)c(=O)c3c2CCC3)c1=O` [Example 107, N-methyl-2-[2-[2-oxo-3-[[4-oxo-3-[4-(trifluoromethoxy)phenyl]-6,7-dihydro-5H-cyclopenta[d]pyridazin-1-yl]amino]-1-pyridyl]ethoxy]acetamide], 49 nM; that for `CN(C)C(=O)COCCn1cccc(Nc2nn(-c3ccc(OC(F)(F)F)cc3)c(=O)c3c2CCC3)c1=O` [Example 108, N,N-dimethyl-2-[2-[2-oxo-3-[[4-oxo-3-[4-(trifluoromethoxy)phenyl]-6,7-dihydro-5H-cyclopenta[d]pyridazin-1-yl]amino]-1-pyridyl]ethoxy]acetamide], 29 nM.
On to `O=C(O)CCn1cccc(Nc2nn(-c3ccc(OC(F)(F)F)cc3)c(=O)c3ccccc23)c1=O` [Example 109, 3-[2-Oxo-3-[[4-oxo-3-[4-(trifluoromethoxy)phenyl]phthalazin-1-yl]amino]-1-pyridyl]propanoic acid], for which the IC50 came out at 842 nM.
Under `O=C(O)CCCn1cccc(Nc2nn(-c3ccc(OC(F)(F)F)cc3)c(=O)c3ccccc23)c1=O` [Example 110, 4-[2-oxo-3-[[4-oxo-3-[4-(trifluoromethoxy)phenyl]phthalazin-1-yl]amino]-1-pyridyl]butanoic acid] stands 482 nM; under `CC(C)(Cn1cccc(Nc2nn(-c3ccc(OC(F)(F)F)cc3)c(=O)c3ccccc23)c1=O)C(=O)O` [Example 111, 2,2-dimethyl-3-[2-oxo-3-[[4-oxo-3-[4-(trifluoromethoxy)phenyl]phthalazin-1-yl]amino]-1-pyridyl]propanoic acid], 1510 nM.
The result for `O=C(O)COCCn1cccc(Nc2nn(-c3ccc(OC(F)(F)F)cc3)c(=O)c3ccccc23)c1=O` [Example 112, 2-[2-[2-oxo-3-[[4-oxo-3-[4-(trifluoromethoxy)phenyl]phthalazin-1-yl]amino]-1-pyridyl]ethoxy]acetic acid] reads 2990 nM; that for `CN(CCn1cccc(Nc2nn(-c3ccc(OC(F)(F)F)cc3)c(=O)c3ccccc23)c1=O)CC(=O)O` [Example 113, 2-[methyl-[2-[2-oxo-3-[[4-oxo-3-[4-(trifluoromethoxy)phenyl]phthalazin-1-yl]amino]-1-pyridyl]ethyl]amino]acetic acid], 161 nM.
The result for `O=C(O)C1CCCN1CCn1cccc(Nc2nn(-c3ccc(OC(F)(F)F)cc3)c(=O)c3ccccc23)c1=O` (stereo not drawn) [Example 114, 1-[2-[2-oxo-3-[[4-oxo-3-[4-(trifluoromethoxy)phenyl]phthalazin-1-yl]amino]-1-pyridyl]ethyl]pyrrolidine-2-carboxylic acid] reads 110 nM; that for `O=C(O)[C@@H]1CCCN1CCn1cccc(Nc2nn(-c3ccc(OC(F)(F)F)cc3)c(=O)c3ccccc23)c1=O` [Example 115, (2S)-1-[2-[2-oxo-3-[[4-oxo-3-[4-(trifluoromethoxy)phenyl]phthalazin-1-yl]amino]-1-pyridyl]ethyl]pyrrolidine-2-carboxylic acid], 180 nM; that for `O=C(O)[C@H]1CCCN1CCn1cccc(Nc2nn(-c3ccc(OC(F)(F)F)cc3)c(=O)c3ccccc23)c1=O` [Example 116, (2R)-1-[2-[2-oxo-3-[[4-oxo-3-[4-(trifluoromethoxy)phenyl]phthalazin-1-yl]amino]-1-pyridyl]ethyl]pyrrolidine-2-carboxylic acid], 261 nM.
For the compound `O=C(O)CCCn1cc(Cl)cc(Nc2nn(-c3ccc(OC(F)(F)F)cc3)c(=O)c3c2CCC3)c1=O` [Example 117, 4-[5-chloro-2-oxo-3-[[4-oxo-3-[4-(trifluoromethoxy)phenyl]-6,7-dihydro-5H-cyclopenta[d]pyridazin-1-yl]amino]-1-pyridyl]butanoic acid], the IC50 worked out at 114 nM.
The result for `O=C(O)CCCn1cccc(Nc2nn(-c3ccc(OC(F)(F)F)cc3)c(=O)c3c2CCC3)c1=O` [Example 118, 4-[2-oxo-3-[[4-oxo-3-[4-(trifluoromethoxy)phenyl]-6,7-dihydro-5H-cyclopenta[d]pyridazin-1-yl]amino]-1-pyridyl]butanoic acid] reads 953 nM.
Under `O=C(O)COCCn1cccc(Nc2nn(-c3ccc(OC(F)(F)F)cc3)c(=O)c3c2CCC3)c1=O` [Example 119, 2-[2-[2-oxo-3-[[4-oxo-3-[4-(trifluoromethoxy)phenyl]-6,7-dihydro-5H-cyclopenta[d]pyridazin-1-yl]amino]-1-pyridyl]ethoxy]acetic acid] stands 3760 nM; under `O=C(O)C1CCN(CCn2cccc(Nc3nn(-c4ccc(OC(F)(F)F)cc4)c(=O)c4c3CCC4)c2=O)C1` (stereo not drawn) [Example 120, 1-[2-[2-oxo-3-[[4-oxo-3-[4-(trifluoromethoxy)phenyl]-6,7-dihydro-5H-cyclopenta[d]pyridazin-1-yl]amino]-1-pyridyl]ethyl]pyrrolidine-3-carboxylic acid], 1120 nM; under `O=C(O)C1CCCN1CCn1cccc(Nc2nn(-c3ccc(OC(F)(F)F)cc3)c(=O)c3c2CCC3)c1=O` (stereo not drawn) [Example 121, 1-[2-[2-oxo-3-[[4-oxo-3-[4-(trifluoromethoxy)phenyl]-6,7-dihydro-5H-1-yl]amino]-1-pyridyl]ethyl]pyrrolidine-2-carboxylic acid], 156 nM.
`O=C(O)C1CN(CCn2cccc(Nc3nn(-c4ccc(OC(F)(F)F)cc4)c(=O)c4c3CCC4)c2=O)CCO1` (stereo not drawn) [Example 122, 4-[2-[2-oxo-3-[[4-oxo-3-[4-(trifluoromethoxy)phenyl]-6,7-dihydro-5H-cyclopenta[d]pyridazin-1-yl]amino]-1-pyridyl]ethyl]morpholine-2-carboxylic acid]: the IC50 is 3710 nM.
